Test results as given in patent publication EP1161410B1, “RETINOID ANTAGONISTS AND USE THEREOF” (Basilea Pharmaceutica AG, priority 1999, dated 2000).

How the values were obtained:
[1] = Effect on weight loss induced by all-trans retinoic acid in mice; settings: female mice
Source text: Effect of retinoids with RXR antagonistic activity on weight loss induced by all-trans retinoic acid in mice.
The test compounds were solubilized/suspended in arachis oil and applied intraperitoneally into female mice (25/30 g) for 5 days a week during 2 weeks.

neonatal mouse calvaria = assay: Bone resorption assay, calcium release from neonatal mouse calvaria in tissue culture; type: cell-based, Swiss albino mice
Protocol: A series of agents are known to induce or stimulate bone resorption. In this assay retinoid antagonists were tested for their capacity to inhibit or counteract the bone resorptive activity of bone resorption inducers.
Bone resorption was determined by quantification of calcium release from neonatal mouse calvaria (skull bones) in a tissue culture system, into supernatant medium. Calvaria were prepared from 4 days old mice (body weight 4-4.5 g) of time controlled mated Swiss albino mice. Frontal and parietal calvarial parts were dissected under a stereo-microscope and halved along the median suture. Half calvaria from all animals were randomly distributed to 6-well culture dishes (NUNC), containing stainless steel grids to support the bones at the interface of gas and medium. The tissue is incubated in BGJ medium (Bioconcept, Switzerland) according to a specified formulation supplemented with 1 mg/ml BSA (bovine serum albumin, SIGMA). Calvaria were cultured at 37°C in humidified atmosphere of 5% CO2 and 95% air. After 24 hours of preincubation, they were transferred to new dishes containing 1.7 ml fresh medium and test substances. Bone resorption inducers and retinoid antagonists were tested either as single agents or in combination. The cultures were then run for 72 hours. Calcium concentrations in culture supernatants were measured immediately after each incubation period. Stable, free calcium was determined in 25 µl samples with a spectrophotometric method using a methylthymol blue containing kit (Biomérieux), (E.M. Gindler and J.D. King, Am. J. Clin. Pathol. 1972, 58, 376-382). The resorptive response was expressed as µg calcium released per half calvarium during 3 days treatment.
Additional tests were done to examine calcium remaining in the calvaria. Calcium was extracted with 5% trichloroacetic acid (TCA) and determined in 50 µl samples after neutralization with NaOH. Furthermore, bone tissue viability was determined to exclude cytotoxicity. This was quantified by the colorimetric MTT tetrazolium test (T. Mosmann, J. Immunol. Methods 1983, 65, 55-63).
Bone resorption induced by the various agents was determined by measuring the amount of calcium released from half calvaria into the supernatant medium. Calcium release is indicated in µg per half calvarium in 1.7 ml medium. Calcium release from calvaria into medium as well as uptake of calcium from medium into calvaria can be measured. Efficacy of retinoid antagonists to inhibit the activity of bone resorption inducers is expressed as % inhibition. It is calculated from the difference between the amount of released calcium by bone resorption inducers alone and the amount of released calcium by their combination with retinoid antagonists. Retinoid antagonists alone induce neither calcium release nor uptake. Basal resorption rate in vehicle controls was 5 or less than 5%.

IL-12 [2] = assay: IL-12 production by activated monocytes (SAC + IFN-γ), ELISA; type: cell-based, human; settings: SAC+IFN-γ alone 120-126 pg/ml
Protocol: THP-1 cells were obtained from American Tissue Culture Collection and cultured in complete medium. […] Exp. Med. 183, 147-157 (1996)]. […] Supernatants were collected after 48 hours and freezed at -20 °C until assayed [[…]-Bordignon et al., J. Clin. Invest. 100, 1513-1519 (1997)]. […] Clin. Invest. 93, 1733-1739 (1994)]. […] Absorbance was read at 450-650 nm. The unknown IL-12 concentrations of the samples were read from the corresponding standard curve and multiplied by the corresponding dilution factor. […] Serial dilutions (1 μM-1 pM) were prepared in complete RPMI medium. 10 μl of each dilution was added to 1 ml culture.

IL-10 = IL-10 production by activated monocytes (SAC + IFN-γ); type: cell-based, human; settings: SAC+IFN-γ alone 1040 pg/ml
TNF-α = TNF-α production by activated monocytes (SAC + IFN-γ); type: cell-based, human; settings: SAC+IFN-γ alone 1840-2000 pg/ml
IL-12 [3] = assay: IL-12 production by PBMC primed with IFNγ and stimulated with SAC; type: cell-based, human; settings: IFNγ+SAC alone 360
Protocol: (§1) THP-1 cells were obtained from American Tissue Culture Collection and cultured in complete medium. To assay for IL-12 production, THP-1 cells, 1.25 x 10^6 cells/ml, were stimulated with S. aureus Cowan strain (SAC) (1/1000) and human recombinant interferon-γ (huIFN-γ (1000 U/ml) [Ma et al., J. Exp. Med. 183, 147-157 (1996)]. Alternatively, 0.5 x 10^6 human peripheral blood mononuclear cells (PBMC) (1 ml culture in 48 well plates) were primed with huIFN-γ (1000 U/ml) for 16 hours at 37°C, and then stimulated with SAC (1/1000). Supernatants were collected after 48 hours and freezed at -20 °C until assayed [Panina-Bordignon et al., J. Clin. Invest. 100, 1513-1519 (1997)].
(§2) IL-12 production was measured by specific enzyme linked immuno sorbant assay (ELISA), using 20C2 antibody (rat anti human IL-12 heterodimer p40-p35), at 2.5 µg/ml in coating buffer, and peroxidase-conjugated 4D6 antibody (rat anti human IL-12) at 250 ng/ml in assay buffer as described [Zhang et al., J. Clin. Invest. 93, 1733-1739 (1994)]. Standard (recombinant human IL-12, 800 pg/ml to 6 pg/ml) and samples (100 µl) diluted in assay buffer were added to duplicate wells. Absorbance was read at 450-650 nm. The unknown IL-12 concentrations of the samples were read from the corresponding standard curve and multiplied by the corresponding dilution factor. Maximal IL-12 production varied between 200 and 400 pg/ml.
(§3) Lyophilized retinoid antagonists were diluted in DMSO under yellow light, on ice at a concentration of 2 mM. Serial dilutions (1 µM-1 pM) were prepared in complete RPMI medium. 10 µl of each dilution was added to 1 ml culture.

IL-12 [4] = assay: IL-12 production by THP-1 cells stimulated with IFNγ and SAC; type: cell-based, human; settings: retinoid antagonist (1 µg) added at time 0 together with IFNγ, IFNγ+SAC alone 275
Protocol: as §1, §2, §3

[5] = A 200 mg/kg alone, intraperitoneally, n=2
[6] = C 100 mg/kg + A 200 mg/kg, intraperitoneally, n=2
[7] = C 200 mg/kg + A 200 mg/kg, intraperitoneally, n=2

SMILES: CCOc1c(\C(C)=C/C=C/C(C)=C/C(=O)O)cc(C(C)(C)C)cc1C(C)(C)C [Compound A, (2E,4E,6Z)-7-(3,5-di-tert.butyl-2-ethaxyphenyl]-3-methyl-2,4,6-octatrienoic acid]
- % survival after 14 days [1, 5]: 100%
- % weight change after 4 days [1, 5]: +15%
- % weight change after 7 days [1, 5]: +26%
- % survival after 14 days [1, 6]: 100%
- % weight change after 4 days [1, 6]: -13%
- % weight change after 7 days [1, 6]: -8%
- % survival after 14 days [1, 7]: 100%
- % weight change after 4 days [1, 7]: -23%
- % weight change after 7 days [1, 7]: -23%

SMILES: C=C1/C(=C\C=C2/CCC[C@]3(C)[C@@H]([C@H](C)CCCC(C)(C)O)CC[C@@H]23)C[C@@H](O)C[C@@H]1O [Calcitriol, 1,25-dihydroxyvitamin D3]
- Calcium release per half calvarium (neonatal mouse calvaria; Calcitriol 0.3 nM alone, 72 hours): 4 ± 3 µg
- Calcium release per half calvarium (neonatal mouse calvaria; Calcitriol 1 nM alone, 72 hours): 9 ± 4 µg
- Calcium release per half calvarium (neonatal mouse calvaria; Calcitriol 3 nM alone, 72 hours): 13 ± 3 µg

SMILES: CC1=C(/C=C/C(C)=C/C=C/C(C)=C/C(=O)O)C(C)(C)CCC1 [Compound C, all-trans retinoic acid]
- Calcium release per half calvarium (neonatal mouse calvaria; all-trans RA 0.01 μM alone, series of antagonist B): 1 ± 2 µg
- Calcium release per half calvarium (neonatal mouse calvaria; all-trans RA 0.01 μM alone, series of antagonist H): 1 ± 4 µg
- Calcium release per half calvarium (neonatal mouse calvaria; all-trans RA 0.1 μM alone, series of antagonist B): 13 ± 3 µg
- Calcium release per half calvarium (neonatal mouse calvaria; all-trans RA 0.1 μM alone, series of antagonist H): 19 ± 11 µg
- Calcium release per half calvarium (neonatal mouse calvaria; all-trans RA 1 μM alone, series of antagonist B): 17 ± 3 µg
- Calcium release per half calvarium (neonatal mouse calvaria; all-trans RA 1 μM alone, series of antagonist H): 23 ± 8 µg
- % survival after 14 days ([1]; C 100 mg/kg alone, intraperitoneally, n=10): 20%
- % survival after 14 days ([1]; C 200 mg/kg alone, intraperitoneally 5 days a week during 2 weeks, n=2): 0%

SMILES: CC1=C(/C=C/C(C)=C\C=C\C(C)=C\C(=O)O)C(C)(C)CCC1 [Compound E, 9-cis retinoic acid]
- Calcium release per half calvarium (neonatal mouse calvaria; 9-cis RA 0.01 μM alone, series of antagonist B): 3 ± 3 µg
- Calcium release per half calvarium (neonatal mouse calvaria; 9-cis RA 0.01 μM alone, series of antagonist H): 6 ± 10 µg
- Calcium release per half calvarium (neonatal mouse calvaria; 9-cis RA 0.1 μM alone, series of antagonist B): 17 ± 10 µg
- Calcium release per half calvarium (neonatal mouse calvaria; 9-cis RA 0.1 μM alone, series of antagonist H): 22 ± 8 µg
- Calcium release per half calvarium (neonatal mouse calvaria; 9-cis RA 1 μM alone, series of antagonist B): 18 ± 4 µg
- Calcium release per half calvarium (neonatal mouse calvaria; 9-cis RA 1 μM alone, series of antagonist H): 40 ± 11 µg

SMILES: CC1(C)CCC(C)(C)c2cc3c(cc21)CCc1c(-c2ccc(C(=O)O)cc2)cn(Cc2cccnc2)c1-3 [Compound I, 4-(7,7,10,10-Tetramethyl-1-pyridin-3-ylmethyl-4,5,7,8,9,10-hexahydro-1H-naphto[2,3-g]indol-3-yl)-benzoic acid]
- IL-12 (IL-12 [2]; antagonist 10 nM): 173 pg/mL
- IL-12 (IL-12 [2]; antagonist 100 nM): 205 pg/mL
- IL-12 (IL-12 [2]; antagonist 1000 nM): 321 pg/mL
- IL-10 (IL-10; antagonist 10 nM): 971 pg/mL
- IL-10 (IL-10; antagonist 100 nM): 983 pg/mL
- IL-10 (IL-10; antagonist 1000 nM): 1116 pg/mL
- TNF-α (TNF-α; antagonist 10 nM): 2592 pg/mL
- TNF-α (TNF-α; antagonist 100 nM): 2752 pg/mL
- TNF-α (TNF-α; antagonist 1000 nM): 2884 pg/mL
- PBMC IL-12 (IL-12 [3]; retinoid antagonist (1 µg) added after 16 hours together with SAC): 367 pg/mL
- PBMC IL-12 (IL-12 [3]; retinoid antagonist (1 µg) added at time 0 together with IFNγ): 371 pg/mL
- THP-1 IL-12 (IL-12 [4]): 364 pg/mL
